Experimental findings from PubChem BioAssay AID328 (DTP/NCI, 2004) are described below.

“And” between values parts separate entries of the source, which are not always exact repeats. Identical values can stand only once. Toxic doses and inconclusive results are not listed.

The assay has as its system BDF1 mice, P388 leukemia ip, median survival T/C. In words: NCI In Vivo Anticancer Drug Screen. Data for tumor model P388 Leukemia (intraperitoneal) in B6D2F1 (BDF1) mice. To be noted: endpoint: median survival time, higher = longer survival. An outline of the steps: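 Survival ratio, drug arm over vehicle arm, in mice with a transplanted tumour.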
Setting [1] is: dose: 50.0 mg/kg/injection, schedule: Q01DX009 (ip), vehicle: saline with Tween-80.
Setting [2] is: dose: 100.0 mg/kg/injection, schedule: Q01DX009 (ip), vehicle: saline with Tween-80.
Where [3] appears, read: dose: 100.0 mg/kg/injection, schedule: Q04DX003 (ip), vehicle: saline.
The mark [4] stands for this setting: dose: 200.0 mg/kg/injection, schedule: Q01DX009 (ip), vehicle: saline with Tween-80.
[5] abbreviates: dose: 200.0 mg/kg/injection, schedule: Q04DX003 (ip), vehicle: saline.
Setting [6] is: dose: 400.0 mg/kg/injection, schedule: Q04DX003 (ip), vehicle: saline.
[7] abbreviates: dose: 12.5 mg/kg/injection, schedule: Q01DX009 (ip), vehicle: Klucel (hydroxypropylcellulose) (HPC).

With `Cc1c(Cl)cccc1NC(=O)Nc1ccccc1`, the T/C was 103 % of control (dose: 100.0 mg/kg/injection, schedule: Q04DX003 (ip), vehicle: DMSO); 100 % of control (dose: 200.0 mg/kg/injection, schedule: Q04DX003 (ip), vehicle: DMSO); 107 % of control (dose: 400.0 mg/kg/injection, schedule: Q04DX003 (ip), vehicle: DMSO).

Turning to `O=[N+]([O-])c1ccc(O)c(C2N(Cc3ccc(N(CCCl)CCCl)cc3)CCCN2Cc2ccc(N(CCCl)CCCl)cc2)c1`, the T/C reads like this: (dose: 12.5 mg/kg/injection, schedule: Q01DX010 (ip), vehicle: carboxymethylcellulose (CMC)) 120 % of control; (dose: 25.0 mg/kg/injection, schedule: Q01DX010 (ip), vehicle: carboxymethylcellulose (CMC)) 120 % of control; (dose: 100.0 mg/kg/injection, schedule: Q01DX010 (ip), vehicle: carboxymethylcellulose (CMC)) 165 % of control.

`CC(C(=O)c1ccc(Br)cc1)C(Br)c1ccccc1` (configuration not stated): the T/C runs as follows: under setting [1], 90 % of control; under setting [2], 113 % of control; under setting [3], 88 % of control; under setting [4], 88 % of control; under setting [5], 99 % of control; (dose: 400.0 mg/kg/injection, schedule: Q01DX009 (ip), vehicle: saline with Tween-80) 97 % of control. The T/C under setting [6] is 91 % of control.

Regarding `C=Cn1ccnc1C.C=Cn1ccnc1C.CC(=O)CC(C)=O.CC(=O)CC(C)=O.[Ni]`, the T/C (dose: 12.5 mg/kg/injection, schedule: Q04DX002 (ip), vehicle: saline) is 119 % of control; the T/C (dose: 25.0 mg/kg/injection, schedule: Q04DX002 (ip), vehicle: saline) was 117 % of control; the T/C (dose: 50.0 mg/kg/injection, schedule: Q04DX002 (ip), vehicle: saline) was 112 % of control.

As for `CSc1nc(N)c2c(C(N)=O)cc(=O)[nH]c2n1`, the T/C by setting is: (dose: 100.0 mg/kg/injection, schedule: Q04DX002 (ip), vehicle: saline with Tween-80) 101 % of control; (dose: 200.0 mg/kg/injection, schedule: Q04DX002 (ip), vehicle: saline with Tween-80) 90 % of control.

Consider `O=C1c2ccccc2C(=O)N1CNc1ccc(Cc2ccc(NCN3C(=O)c4ccccc4C3=O)c(Cl)c2)cc1Cl`, for which the T/C runs as follows: (dose: 100.0 mg/kg/injection, schedule: Q01DX009 (ip), vehicle: Klucel (hydroxypropylcellulose) (HPC)) 100 % of control; (dose: 100.0 mg/kg/injection, schedule: Q04DX003 (ip), vehicle: Klucel (hydroxypropylcellulose) (HPC)) 100 % of control; (dose: 200.0 mg/kg/injection, schedule: Q01DX009 (ip), vehicle: Klucel (hydroxypropylcellulose) (HPC)) 100 % of control; (dose: 200.0 mg/kg/injection, schedule: Q04DX003 (ip), vehicle: Klucel (hydroxypropylcellulose) (HPC)) 95 % of control; (dose: 400.0 mg/kg/injection, schedule: Q01DX009 (ip), vehicle: Klucel (hydroxypropylcellulose) (HPC)) 90 % of control; (dose: 400.0 mg/kg/injection, schedule: Q04DX003 (ip), vehicle: Klucel (hydroxypropylcellulose) (HPC)) 95 % of control.

With `O=C(CCC(=O)[O][Sn]([c]1ccccc1)([c]1ccccc1)[c]1ccccc1)[O][Sn]([c]1ccccc1)([c]1ccccc1)[c]1ccccc1`, the T/C reads like this: (dose: 0.39 mg/kg/injection, schedule: Q01DX009 (ip), vehicle: Klucel (hydroxypropylcellulose) (HPC)) 113 % of control; (dose: 0.78 mg/kg/injection, schedule: Q01DX009 (ip), vehicle: Klucel (hydroxypropylcellulose) (HPC)) 95 % of control; (dose: 1.56 mg/kg/injection, schedule: Q01DX009 (ip), vehicle: Klucel (hydroxypropylcellulose) (HPC)) 95 % of control; (dose: 3.12 mg/kg/injection, schedule: Q01DX009 (ip), vehicle: Klucel (hydroxypropylcellulose) (HPC)) 100 % of control and 104 % of control; under setting [7], 120 % of control; (dose: 40.0 mg/kg/injection, schedule: Q04DX003 (ip), vehicle: Klucel (hydroxypropylcellulose) (HPC)) 104 % of control.

Take `CCCCCCCCCCCCCCCCN(C)c1ccc(C=O)cc1`: the T/C was 104 % of control and 110 % of control (dose: 100.0 mg/kg/injection, schedule: Q01DX009 (ip), vehicle: saline); 118 % of control under setting [3]; 100 % of control and 105 % of control (dose: 200.0 mg/kg/injection, schedule: Q01DX009 (ip), vehicle: saline); 109 % of control under setting [5]; 113 % of control (dose: 400.0 mg/kg/injection, schedule: Q01DX009 (ip), vehicle: saline); 109 % of control under setting [6].

For `O=C1C=C(Nc2ccc(Cl)cc2)C(Nc2ccc(Cl)cc2)=CC1=O`, the T/C is, setting by setting: (dose: 62.5 mg/kg/injection, schedule: Q01DX009 (ip), vehicle: saline with Tween-80) 89 % of control; (dose: 125.0 mg/kg/injection, schedule: Q01DX009 (ip), vehicle: saline with Tween-80) 87 % of control; (dose: 250.0 mg/kg/injection, schedule: Q01DX009 (ip), vehicle: saline with Tween-80) 91 % of control.

For the compound `C[n+]1c(-c2cccc3ccccc23)c2cc([N+](=O)[O-])ccc2c2ccccc21`, the T/C was 113 % of control (dose: 1.0 mg/kg/injection, schedule: Q04DX003 (ip), vehicle: water); 104 % of control (dose: 2.0 mg/kg/injection, schedule: Q04DX003 (ip), vehicle: water); 118 % of control (dose: 4.0 mg/kg/injection, schedule: Q01DX009 (ip), vehicle: water); 115 % of control (dose: 4.0 mg/kg/injection, schedule: Q04DX003 (ip), vehicle: water); 97 % of control and 108 % of control (dose: 8.0 mg/kg/injection, schedule: Q04DX003 (ip), vehicle: water); 109 % of control (dose: 16.0 mg/kg/injection, schedule: Q04DX003 (ip), vehicle: water). In addition, the T/C (dose: 32.0 mg/kg/injection, schedule: Q01DX009 (ip), vehicle: water) was 109 % of control and the T/C (dose: 32.0 mg/kg/injection, schedule: Q04DX003 (ip), vehicle: water) is 106 % of control.

Consider `COc1ccc(-c2cc(=O)c3ccc4cc(OC)c(OC)cc4c3o2)cc1`, for which the T/C runs as follows: (dose: 1.56 mg/kg/injection, schedule: Q01DX009 (ip), vehicle: distilled water + Tween-80) 102 % of control; (dose: 3.13 mg/kg/injection, schedule: Q01DX009 (ip), vehicle: distilled water + Tween-80) 86 % of control; (dose: 6.25 mg/kg/injection, schedule: Q01DX009 (ip), vehicle: distilled water + Tween-80) 87 % of control; (dose: 12.5 mg/kg/injection, schedule: Q01DX009 (ip), vehicle: distilled water + Tween-80) 89 % of control.

Turning to `CCOP(=O)(O)OCC.[Al]`, the T/C reads like this: under setting [1], 100 % of control; under setting [2], 103 % of control; under setting [4], 103 % of control.

`CC(C)(C#N)N=NC(C)(C)C#N`: the T/C runs as follows: under setting [7], 95 % of control; (dose: 25.0 mg/kg/injection, schedule: Q01DX009 (ip), vehicle: Klucel (hydroxypropylcellulose) (HPC)) 90 % of control; (dose: 50.0 mg/kg/injection, schedule: Q01DX009 (ip), vehicle: Klucel (hydroxypropylcellulose) (HPC)) 90 % of control.

For `CN(C)c1ccc(N=Cc2cc[n+](C)cc2)cc1`, the T/C (dose: 12.5 mg/kg/injection, schedule: Q01DX009 (ip), vehicle: saline) was 104 % of control; the T/C (dose: 16.5 mg/kg/injection, schedule: Q01DX009 (ip), vehicle: saline) is 116 % of control and 122 % of control; the T/C (dose: 25.0 mg/kg/injection, schedule: Q01DX009 (ip), vehicle: saline) was 101 % of control; the T/C (dose: 37.5 mg/kg/injection, schedule: Q01DX009 (ip), vehicle: saline) is 109 % of control and 118 % of control; the T/C (dose: 50.0 mg/kg/injection, schedule: Q01DX009 (ip), vehicle: saline) is 118 % of control.
